Measurements: patent publication US11299501B2 (BRISTOL-MYERS SQUIBB COMPANY, priority 2017, dated 2022)

Experiments:
Type in all cases: cell-based
human TLR8 = biological target: T1, human TLR8 (Homo sapiens, UniProt Q9NR97); assay: TLR8 inhibition reporter assay (HEK-Blue SEAP); conditions: cells overexpressing human TLR8, SEAP reporter, stimulated with R848 15.9 μM, 22 hour incubation
T1 construct: host or cells: HEK-Blue cells
T1 sequence (Q9NR97 27-1041): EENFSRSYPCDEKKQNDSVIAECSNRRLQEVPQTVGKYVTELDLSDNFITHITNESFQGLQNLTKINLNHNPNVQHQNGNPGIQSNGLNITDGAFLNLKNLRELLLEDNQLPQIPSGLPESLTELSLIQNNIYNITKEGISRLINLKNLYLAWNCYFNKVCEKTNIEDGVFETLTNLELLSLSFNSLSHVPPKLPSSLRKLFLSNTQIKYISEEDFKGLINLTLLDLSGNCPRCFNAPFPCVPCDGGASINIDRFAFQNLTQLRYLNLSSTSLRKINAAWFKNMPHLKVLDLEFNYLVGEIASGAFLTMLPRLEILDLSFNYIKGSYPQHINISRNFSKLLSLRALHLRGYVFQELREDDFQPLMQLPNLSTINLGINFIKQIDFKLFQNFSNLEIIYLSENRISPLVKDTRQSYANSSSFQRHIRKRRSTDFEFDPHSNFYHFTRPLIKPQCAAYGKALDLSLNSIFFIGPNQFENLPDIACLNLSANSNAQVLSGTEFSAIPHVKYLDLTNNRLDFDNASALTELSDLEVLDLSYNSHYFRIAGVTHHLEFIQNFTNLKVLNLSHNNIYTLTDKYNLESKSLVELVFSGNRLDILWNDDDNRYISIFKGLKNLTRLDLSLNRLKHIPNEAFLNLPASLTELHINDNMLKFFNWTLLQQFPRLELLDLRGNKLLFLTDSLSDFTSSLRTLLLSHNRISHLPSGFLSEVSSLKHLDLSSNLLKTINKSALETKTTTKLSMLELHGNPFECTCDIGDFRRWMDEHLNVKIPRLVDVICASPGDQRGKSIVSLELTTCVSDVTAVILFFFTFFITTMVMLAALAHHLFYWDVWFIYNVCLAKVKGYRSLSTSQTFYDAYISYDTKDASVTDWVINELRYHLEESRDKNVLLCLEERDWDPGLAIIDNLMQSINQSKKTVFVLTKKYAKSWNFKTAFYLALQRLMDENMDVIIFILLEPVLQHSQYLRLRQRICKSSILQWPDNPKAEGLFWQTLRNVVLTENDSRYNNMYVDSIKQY
Protocol: (§1) TLR7/8/9 Inhibition Reporter Assays
(§2) […] (Invivogen) overexpressing human TLR7, TLR8 or TLR9 receptors were used for screening inhibitors of these receptors using an inducible SEAP (secreted embryonic alkaline phosphatase) reporter gene under the control of the IFN-β minimal promoter fused to five NF-κB and AP-1-binding sites. Briefly, cells are seeded into Greiner 384 well plates (15000 cells per well for TLR7, 20,000 for TLR8 and 25,000 for TLR9) and then treated with test compounds in DMSO to yield a final dose response concentration range of 0.05 nM-50 μM. After a 30 minute compound pre-treatment at room temperature, the cells are then stimulated with a TLR7 ligand (gardiquimod at a final concentration of 7.5 μM). TLR8 ligand (R848 at a final concentration of 15.9 μM) or TLR9 ligand (ODN2006 at a final concentration of 5 nM) to activate NF-κB and AP-1 which induce the production of SEAP. After a 22 hour incubation at 37° C., 5% CO2, SEAP levels are determined with the addition of HEK-Blue™ Detection reagent (Invivogen), a cell culture medium that allows for detection of SEAP, according to manufacturer's specifications. The percent inhibition is determined as the % reduction in the HEK-Blue signal present in wells treated with agonist plus DMSO alone compared to wells treated with a known inhibitor.

human TLR9 = biological target: T2, human TLR9 (Homo sapiens, UniProt Q9NR96); assay: TLR9 inhibition reporter assay (HEK-Blue SEAP); conditions: cells overexpressing human TLR9, SEAP reporter, stimulated with ODN2006 5 nM, 22 hour incubation
T2 construct: host or cells: HEK-Blue cells
T2 sequence (Q9NR96 26-1032): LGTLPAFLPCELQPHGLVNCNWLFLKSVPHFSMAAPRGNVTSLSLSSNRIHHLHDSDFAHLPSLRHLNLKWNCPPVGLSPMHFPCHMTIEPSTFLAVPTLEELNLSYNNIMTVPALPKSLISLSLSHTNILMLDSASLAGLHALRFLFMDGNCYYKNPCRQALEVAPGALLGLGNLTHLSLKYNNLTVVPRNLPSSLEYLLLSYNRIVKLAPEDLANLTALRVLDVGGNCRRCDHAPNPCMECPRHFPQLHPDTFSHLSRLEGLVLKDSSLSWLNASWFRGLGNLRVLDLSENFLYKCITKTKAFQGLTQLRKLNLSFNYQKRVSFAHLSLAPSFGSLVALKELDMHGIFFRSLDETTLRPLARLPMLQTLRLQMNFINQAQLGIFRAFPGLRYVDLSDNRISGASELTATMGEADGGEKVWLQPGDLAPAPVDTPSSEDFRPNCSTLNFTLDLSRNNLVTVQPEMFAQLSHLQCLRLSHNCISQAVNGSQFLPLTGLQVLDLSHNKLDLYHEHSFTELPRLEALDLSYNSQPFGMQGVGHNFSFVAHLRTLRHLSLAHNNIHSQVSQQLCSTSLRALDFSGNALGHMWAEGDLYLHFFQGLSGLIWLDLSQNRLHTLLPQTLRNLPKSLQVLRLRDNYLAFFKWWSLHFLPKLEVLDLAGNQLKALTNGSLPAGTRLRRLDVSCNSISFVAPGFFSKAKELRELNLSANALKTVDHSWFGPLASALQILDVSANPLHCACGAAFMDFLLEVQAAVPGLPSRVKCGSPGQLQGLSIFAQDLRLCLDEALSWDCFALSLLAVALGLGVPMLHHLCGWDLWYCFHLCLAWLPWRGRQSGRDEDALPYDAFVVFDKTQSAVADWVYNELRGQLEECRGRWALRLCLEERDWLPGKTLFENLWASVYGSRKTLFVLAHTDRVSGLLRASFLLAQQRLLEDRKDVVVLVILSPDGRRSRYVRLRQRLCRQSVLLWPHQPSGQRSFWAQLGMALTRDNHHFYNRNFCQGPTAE
Protocol: as §1, §2

human TLR7 = biological target: T3, human TLR7 (Homo sapiens, UniProt Q9NYK1); assay: TLR7 inhibition reporter assay (HEK-Blue SEAP); conditions: cells overexpressing human TLR7, SEAP reporter, stimulated with gardiquimod 7.5 μM, 22 hour incubation
T3 construct: host or cells: HEK-Blue cells
T3 sequence (Q9NYK1 27-1049): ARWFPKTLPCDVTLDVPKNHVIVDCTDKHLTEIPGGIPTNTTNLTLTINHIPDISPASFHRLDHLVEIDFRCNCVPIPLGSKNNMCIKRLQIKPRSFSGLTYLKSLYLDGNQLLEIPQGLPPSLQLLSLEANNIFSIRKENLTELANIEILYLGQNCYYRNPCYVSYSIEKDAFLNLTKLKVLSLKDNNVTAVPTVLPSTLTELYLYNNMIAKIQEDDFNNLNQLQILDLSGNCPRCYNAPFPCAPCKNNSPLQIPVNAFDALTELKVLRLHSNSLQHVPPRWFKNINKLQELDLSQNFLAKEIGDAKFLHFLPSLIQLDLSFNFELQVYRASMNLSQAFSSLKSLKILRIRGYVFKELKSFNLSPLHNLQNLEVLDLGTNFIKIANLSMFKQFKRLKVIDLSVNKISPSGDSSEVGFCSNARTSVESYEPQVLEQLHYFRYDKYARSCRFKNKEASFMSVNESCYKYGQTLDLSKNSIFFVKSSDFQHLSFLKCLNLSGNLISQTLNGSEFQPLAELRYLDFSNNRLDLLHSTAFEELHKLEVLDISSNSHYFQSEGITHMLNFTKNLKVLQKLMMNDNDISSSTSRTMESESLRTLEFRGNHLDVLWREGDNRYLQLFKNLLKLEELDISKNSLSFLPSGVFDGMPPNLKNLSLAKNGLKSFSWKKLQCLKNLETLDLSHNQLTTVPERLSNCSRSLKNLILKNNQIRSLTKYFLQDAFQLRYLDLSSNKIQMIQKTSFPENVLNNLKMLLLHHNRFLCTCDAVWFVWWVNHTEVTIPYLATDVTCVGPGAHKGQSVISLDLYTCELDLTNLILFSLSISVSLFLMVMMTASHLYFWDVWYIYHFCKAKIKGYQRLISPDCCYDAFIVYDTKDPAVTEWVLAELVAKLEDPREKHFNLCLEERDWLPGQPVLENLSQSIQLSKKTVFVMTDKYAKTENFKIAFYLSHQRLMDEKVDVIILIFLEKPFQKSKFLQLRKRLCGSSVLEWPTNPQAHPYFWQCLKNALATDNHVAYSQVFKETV
Protocol: as §1, §2

Compound	IC50 (human TLR8) [µM]	IC50 (human TLR9) [µM]	IC50 (human TLR7) [µM]
Cc1c(-c2[nH]c3cnc(C4CCN(C5CCOCC5)CC4)nc3c2C(C)C)cn2ncnc2c1C [Example 13, 6-(7-isopropyl-2-(1-(tetrahydro-2H-pyran-4-yl)piperidin-4-yl)-5H-pyrrolo[3,2-d]pyrimidin-6-yl)-7,8-dimeihyl-[1,2,4]triazolo[1,5-a]pyridine]	< 0.1	1 to 50	< 0.1
COc1cc(-c2[nH]c3cnc(C4CCN(C5COC5)CC4)nc3c2C(C)C)cn2ncnc12 [Example 14, 6-(7-isopropyl-2-(1-(oxetan-3-yl)piperidin-4-yl)-5H-pyrrolo[3,2-d]pyrimidin-6-yl)-8-methoxy-[1,2,4]triazolo[1,5-a]pyridine]	< 0.1	1 to 50	< 0.1
COc1cc(-c2[nH]c3cnc(C4CCN(CC(C)(C)O)CC4)nc3c2C(C)C)cn2ncnc12 [Example 15, 1-(4-(7-isopropyl-6-(8-methoxy-[1,2,4]triazolo[1,5-a]pyridin-6-yl)-5H-pyrrolo[3,2-d]pyrimidin-2-yl)piperidin-1-yl)-2-methylpropan-2-ol]	< 0.1	1 to 50	< 0.1
COc1ccc(-c2[nH]c3cnc(C4CCNCC4)nc3c2C(C)C)cc1OC [Example 17, 6-(3,4-dimethoxyphenyl)-7-isopropyl-2-(piperidin-4-yl)-5H-pyrrolo[3,2-d]pyrimidine]	< 0.1	0.1 to 1	< 0.1
COc1ccc(-c2[nH]c3cnc(C4CCN(C(=O)CN(C)C)CC4)nc3c2C(C)C)cc1OC [Example 18, 1-(4-(6-(3,4-dimethoxyphenyl)-7-isopropyl-5H-pyrrolo[3,2-d]pyrimidin-2-yl)piperidin-1-yl)-2-(dimethylanino)ethan-1-one]	0.1 to 1	0.1 to 1	< 0.1
Cc1c(-c2[nH]c3cnc(C4CCN(C5COC5)CC4)nc3c2C(C)C)cn2ncnc2c1C [Example 19, 6-(7-isopropyl-2-(1-(oxetan-3-yl)piperidin-4-yl)-5H-pyrrolo[3,2-d]pyrimidin-6-yl)-7,8-dimethyl-[1,2,4]triazolo[1,5-a]pyridine]	< 0.1	1 to 50	< 0.1
Cc1cc(-c2[nH]c3cnc(C4CCN(CC(C)(C)O)CC4)nc3c2C(C)C)cn2ncnc12 [Example 20, 1-(4-(7-isopropyl-6-(8-methyl-[1,2,4]triazolo[1,5-a]pyridin-6-yl)-5H-pyrrolo[3,2-d]pyrimidin-2-yl)piperidin-1-yl)-2-methylpropan-2-ol]	< 0.1	1 to 50	< 0.1
Cc1cc(-c2[nH]c3cnc(C4CCN(C5CCOCC5)CC4)nc3c2C(C)C)cn(C)c1=O [Example 21, 5-(7-isopropyl-2-(1-(tetrahydro-2H-pyran-4-yl)piperidin-4-yl)-5H-pyrrolo[3,2-d]pyrimidin-6-yl)-1,3-dimethylpyridin-2(1H)-one]	< 0.1	0.1 to 1	< 0.1
COc1ccc(-c2[nH]c3cnc(C4CCN(C5CCN(C(C)C)CC5)CC4)nc3c2C(C)C)cc1OC [Example 22, 6-(3,4-dimedioxyphenyl)-7-isopropyl-2-(1′-isopropyl-[1,4′-bipiperidin]-4-yl)-5H-pyrrolo[3,2-d]pyrimidine]	< 0.1	0.1 to 1	< 0.1
CCc1c(-c2ccnc(C)c2)[nH]c2cnc(C3CCN(C4CCN(C(C)C)CC4)CC3)nc12 [Example 23, 7-ethyl-2-(1′-isopropyl-[1,4′-bipiperidin]-4-yl)-6-(2-methylpyridin-4-yl)-5H-pyrrolo[3,2-d]pyrimidine]	< 0.1	0.1 to 1	0.1 to 1
Cc1cc(-c2[nH]c3cnc(C4CCN(C5COC5)CC4)nc3c2C(C)C)cn2ncnc12 [Example 24, 6-(7-isopropyl-2-(1-(oxetan-3-yl)piperidin-4-yl)-5H-pyrrolo[3,2-d]pyrimidin-6-yl)-8-methyl-[1,2,4]triazolo[1,5-a]pyridine]	< 0.1	1 to 50	< 0.1
CCc1c(-c2ccnc3[nH]ncc23)[nH]c2cnc(C3CCN(C4CCN(C(C)C)CC4)CC3)nc12 [Example 25, 4-(7-ethyl-2-(1′-isopropyl-[1,4′-bipiperidin]-4-yl)-5H-pyrrolo[3,2-d]pyrimidin-6-yl)-1H-pyrazolo[3,4-b]pyridine]	0.1 to 1	0.1 to 1	0.1 to 1
